The text below walks through data of US20030055244A1, “Pyridyl-containing spirocyclic compounds as inhibitors of fibrinogen-dependent platelet aggregation” (priority 1999, published 2003).

Read-outs that look alike come from different tables or passages of the source.

The target in one experiment is T1, GPIIb-IIIa (Homo sapiens, UniProt P05106+P08514).
T1 construct: Purified platelet GPIIb-IIIa receptor was prepared as described by Fitzgerald; from tissue; host or cells: platelets
As to the kind of experiment: ELISA IIb-IIIa assay (fibrinogen binding to immobilized purified GPIIb-IIIa). Particulars: inhibition of fibrinogen binding to purified GPIIb-IIIa. How it is done: No. 1 - The ELISA IIb-IIIa Assay
PIIb-IIIa is coated onto microtiter plates. The coated support is then contacted with fibrinogen and with the test material (e.g., compounds of Formula I) and incubated for a sufficient time to permit maximal binding of fibrinogen to the immobilized GPIIb- Ila. Fibrinogen is typically provided at a concentration of about 5-50 nM and the test material can, if desired, be added at a series of dilution. Typical incubations are 2 to 4 hours at 25° C., the time and temperature being interdependent.
After incubation, the solution containing the fibrinogen and test material is removed and the level of binding of fibrinogen measured by quantitating bound fibrinogen to GPIIb-IIIa. Any suitable means of detection may be used, but it is convenient to employ labeled fibrinogen, for example using biotinylated labels. Such methods are well known in the art.
A. Description of Assays—Plate Assays
After purification, the receptors were stored in 0.1% Triton X-100 at 0.1-1.0 mg/ml.
The receptors were coated to the wells of 96-well flat-bottom ELISA plates (Linbro EIA-Plus microtiter plate, Flow Laboratories) after diluting 1:200 with a solution of 20 mM Tris-HCl, 150 mM NaCl, 1 mM CaCl2, pH 7.4, to reduce the Triton X-100 concentration to below its critical micellar concentration and adding an aliquot of 100 ul to each well. The wells were all allowed to incubate overnight at 4° C., and then aspirated to dryness. Additional sites were blocked by the addition of bovine serum albumin (BSA) at 35 mg/ml in the above buffer for two hours at 30° C. to prevent nonspecific binding. The wells were then washed once with binding buffer ([…] Tris-HCl, 100 mM NaCl 2 mM CaCl2, 1 mg/ml BSA).
The corresponding ligands (fibrinogen, von Willebrand Factor, or vitronectin) were conjugated to biotin using commercially available reagents and standard protocols. The labeled ligands were added to the receptor-coated wells at final concentration of 10 nM (100 ul/well) and incubated for 3 hours at 25° C. in the presence or absence of the test samples. After incubation, the wells are aspirated to dryness and bound ligand is quantitated.
Decreased color development is observed in wells incubated with test samples which inhibit binding of ligand to receptor.
In general terms: In an ELISA, binding on a coated surface is turned into a signal by an enzyme label.

Experiment [1] relates to human platelet-rich plasma. As to the kind of experiment: Platelet aggregation assay (Aggregation-Human PRP/ADP). It counts as cell-based. As for the experimental part:
Platelet-rich plasma was prepared from healthy human volunteers for use in determining inhibition of platelet aggregation by the compounds.
Platelet-rich plasma was prepared at room temperature by centrifugation of the citrated whole blood at 100 × g for twelve minutes. The platelet rich plasma contained approximately 200-400,000 platelets/μl.
Platelet aggregation was assayed in a 4-channel platelet aggregation profiler (PAP-4, Biodata, Hatboro, Pa.) according to the manufacturers directions. Inhibition of platelet aggregation was studied by adding varying amounts of adenosine diphosphate (ADP) to stirred human platelet-rich plasma. Specifically, the human platelet-rich plasma was incubated with the compound being tested for 1 minute at 37° C. prior to the addition of a variety of aggregating agents most often ADP 5 μM to 20 μM, but also 1 μg/ml collagen, 1 μM U46619 and 0.3 μM platelet activating factor.

The test system of experiment [2] is human platelet-rich plasma. The experiment is described as above. It counts as cell-based. This is another data set of the same source.
Setting [3] is: read-out: PRP (ADP-Citrate) IC50.

T1 sequence (P08514 32-887 limits assumed): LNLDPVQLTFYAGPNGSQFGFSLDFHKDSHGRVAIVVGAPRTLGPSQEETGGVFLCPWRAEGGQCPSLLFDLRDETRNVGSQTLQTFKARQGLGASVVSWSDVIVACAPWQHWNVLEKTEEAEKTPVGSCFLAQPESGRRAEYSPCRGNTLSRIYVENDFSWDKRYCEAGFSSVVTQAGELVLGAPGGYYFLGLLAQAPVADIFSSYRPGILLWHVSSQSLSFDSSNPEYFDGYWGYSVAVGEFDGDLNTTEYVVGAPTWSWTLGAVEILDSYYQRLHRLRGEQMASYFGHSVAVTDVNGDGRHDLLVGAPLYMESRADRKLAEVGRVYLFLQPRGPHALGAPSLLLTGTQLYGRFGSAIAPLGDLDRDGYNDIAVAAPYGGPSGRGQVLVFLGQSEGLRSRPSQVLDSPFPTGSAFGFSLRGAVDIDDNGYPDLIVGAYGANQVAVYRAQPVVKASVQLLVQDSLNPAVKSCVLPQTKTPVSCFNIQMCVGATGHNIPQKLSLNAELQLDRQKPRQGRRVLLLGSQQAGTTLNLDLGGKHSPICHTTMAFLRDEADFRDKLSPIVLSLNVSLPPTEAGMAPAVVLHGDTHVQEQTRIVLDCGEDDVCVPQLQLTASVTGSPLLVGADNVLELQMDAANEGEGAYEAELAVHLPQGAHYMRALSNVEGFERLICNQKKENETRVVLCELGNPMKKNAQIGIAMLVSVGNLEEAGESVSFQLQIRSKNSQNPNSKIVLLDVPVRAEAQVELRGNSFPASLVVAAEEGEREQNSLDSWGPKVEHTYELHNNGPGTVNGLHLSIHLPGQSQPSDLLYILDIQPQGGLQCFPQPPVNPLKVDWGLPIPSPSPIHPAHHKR
T1 sequence (P08514 891-1039 limits assumed): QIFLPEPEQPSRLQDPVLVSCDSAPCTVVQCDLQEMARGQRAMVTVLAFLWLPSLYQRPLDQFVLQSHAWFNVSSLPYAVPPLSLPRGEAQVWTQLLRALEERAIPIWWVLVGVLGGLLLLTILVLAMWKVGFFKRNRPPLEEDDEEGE
T1 sequence (P05106 27-788): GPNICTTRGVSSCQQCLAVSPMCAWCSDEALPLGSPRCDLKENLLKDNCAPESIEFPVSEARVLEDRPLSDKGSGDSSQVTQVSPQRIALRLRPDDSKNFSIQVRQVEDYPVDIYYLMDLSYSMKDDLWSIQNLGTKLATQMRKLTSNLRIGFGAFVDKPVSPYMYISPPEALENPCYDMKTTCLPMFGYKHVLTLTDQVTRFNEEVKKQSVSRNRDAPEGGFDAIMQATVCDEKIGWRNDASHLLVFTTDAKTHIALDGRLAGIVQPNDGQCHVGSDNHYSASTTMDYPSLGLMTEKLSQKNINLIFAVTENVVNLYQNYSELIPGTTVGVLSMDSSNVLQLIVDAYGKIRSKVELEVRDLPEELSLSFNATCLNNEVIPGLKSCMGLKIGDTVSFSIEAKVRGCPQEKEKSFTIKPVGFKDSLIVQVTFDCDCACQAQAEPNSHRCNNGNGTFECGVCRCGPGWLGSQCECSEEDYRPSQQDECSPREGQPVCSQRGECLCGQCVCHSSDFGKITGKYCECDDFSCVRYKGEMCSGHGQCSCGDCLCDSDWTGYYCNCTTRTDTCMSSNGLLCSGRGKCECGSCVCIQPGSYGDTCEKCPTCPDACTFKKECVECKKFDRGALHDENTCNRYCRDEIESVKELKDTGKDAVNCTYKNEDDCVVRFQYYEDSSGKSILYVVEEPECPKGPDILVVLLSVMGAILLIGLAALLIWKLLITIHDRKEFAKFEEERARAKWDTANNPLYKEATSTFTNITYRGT

Turning to `Cc1noc(C)c1S(=O)(=O)N[C@@H](CNC(=O)C1CCC2(CC1)CCN(c1ccncc1)CC2)C(=O)O` [Example 13, (2S)-2-{[(3,5-dimethyl-4-isoxazolyl)sulfonyl]amino}-3-({[3-(4-pyridyl)-3-azaspiro [5.5]undec-9-yl]carbonyl}amino)propanoic acid], the figures for the IC50 (on GPIIb-IIIa; in experiment [1] (setting [3]); in experiment [2] (read-out: PRP (ADP-PPACK) IC50)) were 1 nM, 44 nM and 68 nM, respectively.
In the case of `Cc1ccc(S(=O)(=O)N[C@@H](CNC(=O)C2CCC3(CC2)CCN(c2ccncc2)CC3)C(=O)O)cc1` [Example 14, (2S)-2-{[(4-methylphenyl)sulfonyl]amino}-3-({[3-(4-pyridyl)-3-azaspiro [5.5]undec-9-yl]carbonyl}amino)propanoic acid], the results for the IC50 (on GPIIb-IIIa; in experiment [1] (setting [3]); in experiment [2] (read-out: PRP (ADP-PPACK) IC50)) were 1 nM, 98 nM and 169 nM, respectively.
As to `CCCCS(=O)(=O)N[C@@H](CNC(=O)C1CCC2(CC1)CCN(c1ccncc1)CC2)C(=O)O` [Example 15], the IC50 was 10 nM at GPIIb-IIIa, 168 nM in experiment [1] (read-out: PRP (ADP) IC50) and 686 nM in experiment [2] (read-out: PRP (PPACK) IC50).
Regarding `O=C(O)CCCCCCC(=O)N1CCC2(CCN(c3ccncc3)CC2)C1` [Example 23, 8-oxo-8-(8-(4-pyridyl)-2,8-diazaspiro[4.5]dec-2-yl)octanoic acid], the IC50 on GPIIb-IIIa amounted to 196 nM; in experiment [1] (setting [3]), 18700 nM.
The matching figures for `O=C(O)CCCCCC(=O)N1CCC2(CCN(c3ccncc3)CC2)C1` [Example 24, 7-oxo-7-(8-(4-pyridyl)-2,8-diazaspiro[4.5]dec-2-yl)heptanoic acid]: 16 nM and 1300 nM.
On to `O=C(O)COC1CCN(C(=O)N2CCC3(CCN(c4ccncc4)CC3)C2)CC1` [Example 26, 2-((1-((8-(4-pyridyl)-2,8-diazaspiro[4.5]dec-2-yl)carbonyl)-4-piperidyl)oxy)acetic acid], for which the figures for the IC50 (on GPIIb-IIIa; in experiment [1] (setting [3])) were 457 nM and 1000 nM, respectively.
In the case of `O=C(O)CN1CCN(C(=O)N2CCC3(CCN(c4ccncc4)CC3)C2)CC1=O` [Example 27, 2-(2-oxo-4-((8-(4-pyridyl)-2,8-diazaspiro[4.5]dec-2-yl)carbonyl)-4-piperazino) acetic acid], the concentration for half-maximal inhibition (IC50) at GPIIb-IIIa was 35 nM; in experiment [1] (setting [3]), 568 nM.
Regarding `O=C(O)CN1CCN(C(=O)N2CCC3(CC2)CCN(c2ccncc2)C3)CC1=O` [Example 29, 2-(2-oxo-4-((2-(4-pyridyl)-2,8-diazaspiro[4.5]dec-8-yl)carbonyl)piperazino)acetic acid], the IC50 at GPIIb-IIIa turned out to be 122 nM; in experiment [1] (setting [3]) it was 2650 nM.
As for `O=C(O)CC(=O)N1CCN(C(=O)N2CCC3(CC2)CCN(c2ccncc2)C3)CC1` [Example 31, 3-oxo-3-(4-{[-(4-pyridyl)-2,8-diazaspiro[4.5]dec-8-yl]carbonyl}piperazino) propanoic acid], the IC50 in experiment [1] (setting [3]) was 660 nM; in experiment [2] (read-out: PRP (ADP-PPACK) IC50) it was 3600 nM.
For `Cc1noc(C)c1S(=O)(=O)N[C@@H](CCC(=O)N1CCC2(CC1)CCN(c1ccncc1)C2)C(=O)O` [Example 34, (2S)-2-{[(3,5-dimethyl-4-isoxazolyl)sulfonyl]amino}-5-oxo-5-[2-(4-pyridyl)-2,8-diazaspiro [4.5]dec-8-yl]pentanoic acid], the IC50 at GPIIb-IIIa is 2 nM; in experiment [1] (setting [3]), 271 nM.
Consider `O=C(O)CN1CCN(C(=O)N2CCC3(CC2)CCN(c2ccncc2)C3)CC1` [Example 41], for which the results for the IC50 (at GPIIb-IIIa; in experiment [1] (read-out: PRP IC50)) were 252 nM and 8920 nM, respectively.
In the case of `O=C(O)CC(=O)N1CCCN(C(=O)N2CCC3(CC2)CCN(c2ccncc2)C3)CC1` [Example 43, 3-oxo-3-(4-{[2-(4-pyridyl)-2,8-diazaspiro[4.5]dec-8-yl]carbonyl}-1,4-diazepan-1-yl) propanoic acid], the IC50 on GPIIb-IIIa was 25 nM; in experiment [1] (read-out: PRP IC50) it was 697 nM.
As to `O=C(O)COC1CCN(C(=O)N2CCC3(CC2)CCN(c2ccncc2)C3)CC1` [Example 44], the IC50 at GPIIb-IIIa turned out to be 138 nM; in experiment [1] (read-out: PRP IC50), 3780 nM.
The matching figures for `O=C(O)COCC1CCN(C(=O)N2CCC3(CC2)CCN(c2ccncc2)C3)CC1` [Example 45, 2-[(1-{[2-(4-pyridyl)-2,8-diazaspiro[4.5]dec-8-yl]carbonyl}-4-piperidyl)-methoxy]acetic acid]: 106 nM and 2820 nM.
As to `O=C(O)CC(=O)NC1CCN(C(=O)N2CCC3(CC2)CCN(c2ccncc2)C3)C1` (stereo not shown) [Example 47, 3-oxo-3-[(1-{[2-(4-pyridyl)-2,8-diazaspiro[4.5]dec-8-yl]carbonyl}-tetrahydro-1H-3-pyrrolyl)amino]propanoic acid], the IC50 on GPIIb-IIIa stood at 447 nM; in experiment [1] (read-out: PRP IC50), 5860 nM.
Regarding `O=C(O)CCN1CCC(C(=O)N2CCC3(CC2)CCN(c2ccncc2)C3)CC1` [Example 49, 3-(4-{[2-(4-pyridyl)-2,8-diazaspiro[4.5]dec-8-yl]carbonyl}piperidino) propanoic acid], the IC50 at GPIIb-IIIa is 17 nM; in experiment [1] (read-out: PRP IC50), 1010 nM.
In the case of `O=C(O)CS(=O)(=O)N1CCC(C(=O)N2CCC3(CC2)CCN(c2ccncc2)C3)CC1` [Example 51, ethyl 2-[(4-{[2-(4-pyridyl)-2,8-diazaspiro[4.5]dec-8-yl]carbonyl}-piperidino)sulfonyl]acetic acid], the IC50 at GPIIb-IIIa was 94 nM; in experiment [1] (setting [3]) it was 938 nM.
On to `O=C(O)Cn1ccc2cc(C(=O)N3CCC4(CC3)CCN(c3ccncc3)C4)ccc21` [Example 53, 2-(5-{[2(4-pyridyl)-2,8-diazaspiro[4,5]dec-8-yl]carbonyl}-1H-1-indolyl) acetic acid], for which the results for the 50% inhibitory concentration (IC50) (at GPIIb-IIIa; in experiment [1] (setting [3])) were 47 nM and 952 nM, respectively.
Consider `O=C(O)Cc1csc(NC(=O)CN2CCC3(CC2)CCN(c2ccncc2)C3)n1` [Example 54, 2-[2-({2-[2-(4-pyridyl)-2,8-diazaspiro[4.5]dec-8-yl]acetyl}amino)-1,3-thiazol-4-yl]acetic acid], for which the IC50 on GPIIb-IIIa amounted to 2280 nM; in experiment [1] (setting [3]), 32100 nM.
Consider `O=C(O)CCNC(=O)N1CCC2(CC1)CCN(c1ccncc1)C2` [Example 55, 3-({[2-(4-pyridyl)-2,8-diazaspiro[4.5]dec-8-yl]carbonyl}amino)propanoic acid], for which the IC50 on GPIIb-IIIa is 28900 nM; in experiment [1] (setting [3]), 34600 nM.

As a reminder, the IC50 is the point on the concentration scale where inhibition reaches its midpoint.
